Data taken from PMC4076210, “Discovery of Novel AKT Inhibitors with Enhanced Anti-Tumor Effects in Combination with the MEK Inhibitor” (PLoS ONE, 2014).
Read-outs that look alike come from different tables or passages of the source.

Assays:
Experiment in all cases: Kinase panel
Type in all cases: biochemical
[1] = molecular target: T1, CHK2(h) (Homo sapiens, UniProt O96017)
T1 construct: purchased Millipore KinaseProfiler

[2] = molecular target: T2, JNK1α1(h) (Homo sapiens, UniProt P45983)
T2 construct: purchased Millipore KinaseProfiler
T2 sequence (P45983 1-384 isoform P45983-2): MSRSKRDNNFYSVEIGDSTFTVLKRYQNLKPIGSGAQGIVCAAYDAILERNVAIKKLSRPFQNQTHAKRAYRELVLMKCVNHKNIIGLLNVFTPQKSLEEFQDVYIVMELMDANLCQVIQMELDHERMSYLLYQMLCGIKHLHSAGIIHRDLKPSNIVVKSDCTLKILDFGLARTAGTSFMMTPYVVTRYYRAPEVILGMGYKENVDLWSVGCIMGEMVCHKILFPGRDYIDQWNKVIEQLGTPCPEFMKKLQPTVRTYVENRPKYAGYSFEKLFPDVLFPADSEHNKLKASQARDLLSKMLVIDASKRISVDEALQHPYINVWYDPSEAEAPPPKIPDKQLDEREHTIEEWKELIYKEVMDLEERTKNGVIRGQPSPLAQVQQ

[3] = molecular target: T3, MSSK1(h) (Homo sapiens, UniProt Q9UPE1)
T3 construct: purchased Millipore KinaseProfiler

[4] = molecular target: T4, MAPKAP-K2(h) (Homo sapiens, UniProt P49137)
T4 construct: purchased Millipore KinaseProfiler
T4 sequence (P49137 whole entry): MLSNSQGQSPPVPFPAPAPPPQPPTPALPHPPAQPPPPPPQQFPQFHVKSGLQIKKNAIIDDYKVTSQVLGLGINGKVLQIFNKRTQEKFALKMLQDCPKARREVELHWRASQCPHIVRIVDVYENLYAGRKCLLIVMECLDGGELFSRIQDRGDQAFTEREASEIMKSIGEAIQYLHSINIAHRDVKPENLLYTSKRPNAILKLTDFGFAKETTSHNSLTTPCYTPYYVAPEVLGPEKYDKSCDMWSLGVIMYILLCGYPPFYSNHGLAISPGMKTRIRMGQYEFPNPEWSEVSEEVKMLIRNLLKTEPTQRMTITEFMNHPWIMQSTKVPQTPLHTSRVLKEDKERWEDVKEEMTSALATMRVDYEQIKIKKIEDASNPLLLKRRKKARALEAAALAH

[5] = molecular target: T5, CSK(h) (Homo sapiens, UniProt P41240)
T5 construct: purchased Millipore KinaseProfiler
T5 sequence (P41240 whole entry): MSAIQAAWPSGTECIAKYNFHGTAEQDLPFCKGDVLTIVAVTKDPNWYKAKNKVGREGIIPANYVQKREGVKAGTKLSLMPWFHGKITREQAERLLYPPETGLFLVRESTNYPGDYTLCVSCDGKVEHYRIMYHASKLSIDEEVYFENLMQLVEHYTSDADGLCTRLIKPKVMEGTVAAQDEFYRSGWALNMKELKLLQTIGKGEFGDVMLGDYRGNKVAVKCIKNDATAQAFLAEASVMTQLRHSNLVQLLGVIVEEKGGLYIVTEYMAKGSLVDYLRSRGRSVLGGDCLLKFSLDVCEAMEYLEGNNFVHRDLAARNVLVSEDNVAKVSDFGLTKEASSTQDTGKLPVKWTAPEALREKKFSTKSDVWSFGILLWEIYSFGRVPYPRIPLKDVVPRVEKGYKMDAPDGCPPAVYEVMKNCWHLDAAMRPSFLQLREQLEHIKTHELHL

[6] = molecular target: T6, MRCKα(h) (Homo sapiens, UniProt Q5VT25)
T6 construct: purchased Millipore KinaseProfiler
T6 sequence (Q5VT25 whole entry): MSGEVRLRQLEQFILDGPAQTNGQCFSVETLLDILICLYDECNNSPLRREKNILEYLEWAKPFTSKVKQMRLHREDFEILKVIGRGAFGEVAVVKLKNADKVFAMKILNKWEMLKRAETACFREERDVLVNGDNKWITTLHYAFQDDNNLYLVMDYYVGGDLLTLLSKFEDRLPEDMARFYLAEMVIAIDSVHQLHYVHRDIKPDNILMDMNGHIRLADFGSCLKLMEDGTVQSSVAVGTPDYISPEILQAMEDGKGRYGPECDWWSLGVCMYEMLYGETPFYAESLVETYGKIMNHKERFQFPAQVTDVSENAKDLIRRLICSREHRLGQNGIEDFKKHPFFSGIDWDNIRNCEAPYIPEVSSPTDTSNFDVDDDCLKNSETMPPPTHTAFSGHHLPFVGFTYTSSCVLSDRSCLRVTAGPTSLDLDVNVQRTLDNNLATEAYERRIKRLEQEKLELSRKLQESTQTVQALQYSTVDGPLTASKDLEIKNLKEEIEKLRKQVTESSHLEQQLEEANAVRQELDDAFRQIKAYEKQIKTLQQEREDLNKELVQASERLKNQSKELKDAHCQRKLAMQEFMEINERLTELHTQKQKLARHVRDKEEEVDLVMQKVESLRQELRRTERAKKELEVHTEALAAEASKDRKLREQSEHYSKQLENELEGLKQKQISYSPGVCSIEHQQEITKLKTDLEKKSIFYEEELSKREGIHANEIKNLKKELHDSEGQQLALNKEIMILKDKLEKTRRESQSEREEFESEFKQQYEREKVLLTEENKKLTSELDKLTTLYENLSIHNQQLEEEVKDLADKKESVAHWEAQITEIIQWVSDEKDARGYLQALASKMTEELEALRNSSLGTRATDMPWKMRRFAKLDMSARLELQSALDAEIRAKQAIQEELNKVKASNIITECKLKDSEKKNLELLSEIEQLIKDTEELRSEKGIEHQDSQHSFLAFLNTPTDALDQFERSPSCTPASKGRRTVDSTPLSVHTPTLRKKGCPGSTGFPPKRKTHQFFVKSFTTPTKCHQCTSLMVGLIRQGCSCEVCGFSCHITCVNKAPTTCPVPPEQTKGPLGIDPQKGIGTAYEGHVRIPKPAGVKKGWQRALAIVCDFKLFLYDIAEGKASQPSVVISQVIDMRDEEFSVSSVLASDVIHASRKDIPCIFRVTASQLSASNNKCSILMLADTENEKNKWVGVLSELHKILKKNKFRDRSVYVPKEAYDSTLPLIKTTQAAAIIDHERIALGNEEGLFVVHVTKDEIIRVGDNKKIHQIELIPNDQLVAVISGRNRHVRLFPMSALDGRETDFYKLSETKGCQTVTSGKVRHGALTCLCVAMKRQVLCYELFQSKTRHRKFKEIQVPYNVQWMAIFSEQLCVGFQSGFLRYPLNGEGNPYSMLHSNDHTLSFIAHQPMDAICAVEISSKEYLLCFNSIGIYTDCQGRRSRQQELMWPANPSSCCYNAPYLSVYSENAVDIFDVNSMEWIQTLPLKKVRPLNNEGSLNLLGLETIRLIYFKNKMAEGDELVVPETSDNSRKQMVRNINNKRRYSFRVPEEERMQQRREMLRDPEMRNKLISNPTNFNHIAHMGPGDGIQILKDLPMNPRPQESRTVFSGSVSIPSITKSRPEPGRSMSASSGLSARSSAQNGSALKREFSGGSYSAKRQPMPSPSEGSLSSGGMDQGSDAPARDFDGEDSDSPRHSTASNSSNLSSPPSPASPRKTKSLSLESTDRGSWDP

[7] = molecular target: T7, PAK4(h) (Homo sapiens, UniProt O96013)
T7 construct: purchased Millipore KinaseProfiler

[8] = molecular target: T8, ROCK-II(r) (Rattus norvegicus, UniProt Q62868)
T8 construct: purchased Millipore KinaseProfiler

[9] = molecular target: T9, IRR(h) (Homo sapiens, UniProt P14616)
T9 construct: purchased Millipore KinaseProfiler

[10] = molecular target: T10, CDK6/cyclinD3(h) (Homo sapiens, UniProt Q00534)
T10 construct: purchased Millipore KinaseProfiler

[11] = molecular target: T11, PhKγ2(h) (Homo sapiens, UniProt P15735)
T11 construct: purchased Millipore KinaseProfiler
T11 sequence (P15735 1-406): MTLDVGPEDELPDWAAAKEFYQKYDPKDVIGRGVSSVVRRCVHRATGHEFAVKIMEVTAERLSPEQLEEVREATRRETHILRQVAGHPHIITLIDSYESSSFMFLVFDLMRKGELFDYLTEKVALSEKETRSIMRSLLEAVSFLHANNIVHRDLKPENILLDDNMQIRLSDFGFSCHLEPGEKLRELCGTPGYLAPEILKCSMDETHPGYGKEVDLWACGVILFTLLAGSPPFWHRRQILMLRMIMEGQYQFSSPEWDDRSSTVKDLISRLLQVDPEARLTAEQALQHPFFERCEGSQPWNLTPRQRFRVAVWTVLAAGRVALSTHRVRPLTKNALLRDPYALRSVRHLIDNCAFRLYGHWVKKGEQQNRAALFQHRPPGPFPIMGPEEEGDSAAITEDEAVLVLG

[12] = molecular target: T12, CDK5/p25(h) (Homo sapiens, UniProt Q00535)
T12 construct: purchased Millipore KinaseProfiler
T12 sequence (Q00535 whole entry): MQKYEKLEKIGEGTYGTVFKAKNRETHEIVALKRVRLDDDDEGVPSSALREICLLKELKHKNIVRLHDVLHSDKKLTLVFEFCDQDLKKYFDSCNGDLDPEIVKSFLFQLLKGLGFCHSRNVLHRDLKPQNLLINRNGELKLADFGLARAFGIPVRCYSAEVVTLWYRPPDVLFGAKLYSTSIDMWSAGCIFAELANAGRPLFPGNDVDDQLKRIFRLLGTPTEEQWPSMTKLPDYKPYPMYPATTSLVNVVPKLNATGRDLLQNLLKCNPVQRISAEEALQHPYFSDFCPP
T12 sequence (Q15078 99-307 partner limits assumed): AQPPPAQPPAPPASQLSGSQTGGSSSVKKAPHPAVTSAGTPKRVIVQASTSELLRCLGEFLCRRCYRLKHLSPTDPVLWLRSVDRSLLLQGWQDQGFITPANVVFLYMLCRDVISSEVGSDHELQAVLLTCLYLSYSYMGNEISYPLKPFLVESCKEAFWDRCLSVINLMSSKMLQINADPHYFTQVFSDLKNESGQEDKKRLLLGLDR

[13] = molecular target: T13, MST1(h) (Homo sapiens, UniProt Q13043)
T13 construct: purchased Millipore KinaseProfiler
T13 sequence (Q13043 1-487): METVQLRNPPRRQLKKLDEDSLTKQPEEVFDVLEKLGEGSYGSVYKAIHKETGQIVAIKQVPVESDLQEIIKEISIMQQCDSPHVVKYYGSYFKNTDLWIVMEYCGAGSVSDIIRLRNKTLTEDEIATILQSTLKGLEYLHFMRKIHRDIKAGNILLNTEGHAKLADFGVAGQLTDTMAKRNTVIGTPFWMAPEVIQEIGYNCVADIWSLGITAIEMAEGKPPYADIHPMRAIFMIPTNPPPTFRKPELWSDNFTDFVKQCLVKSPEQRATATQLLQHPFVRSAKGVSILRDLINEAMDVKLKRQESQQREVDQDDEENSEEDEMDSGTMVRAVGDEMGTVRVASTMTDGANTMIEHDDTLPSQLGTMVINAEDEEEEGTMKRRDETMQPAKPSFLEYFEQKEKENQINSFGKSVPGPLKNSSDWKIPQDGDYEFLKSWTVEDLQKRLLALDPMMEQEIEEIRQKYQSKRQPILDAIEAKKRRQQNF

[14] = molecular target: T14, Flt4(h) (Homo sapiens, UniProt P35916)
T14 construct: purchased Millipore KinaseProfiler

[15] = molecular target: T15, TrkA(h) (Homo sapiens, UniProt P04629)
T15 construct: purchased Millipore KinaseProfiler
T15 sequence (P04629 33-796): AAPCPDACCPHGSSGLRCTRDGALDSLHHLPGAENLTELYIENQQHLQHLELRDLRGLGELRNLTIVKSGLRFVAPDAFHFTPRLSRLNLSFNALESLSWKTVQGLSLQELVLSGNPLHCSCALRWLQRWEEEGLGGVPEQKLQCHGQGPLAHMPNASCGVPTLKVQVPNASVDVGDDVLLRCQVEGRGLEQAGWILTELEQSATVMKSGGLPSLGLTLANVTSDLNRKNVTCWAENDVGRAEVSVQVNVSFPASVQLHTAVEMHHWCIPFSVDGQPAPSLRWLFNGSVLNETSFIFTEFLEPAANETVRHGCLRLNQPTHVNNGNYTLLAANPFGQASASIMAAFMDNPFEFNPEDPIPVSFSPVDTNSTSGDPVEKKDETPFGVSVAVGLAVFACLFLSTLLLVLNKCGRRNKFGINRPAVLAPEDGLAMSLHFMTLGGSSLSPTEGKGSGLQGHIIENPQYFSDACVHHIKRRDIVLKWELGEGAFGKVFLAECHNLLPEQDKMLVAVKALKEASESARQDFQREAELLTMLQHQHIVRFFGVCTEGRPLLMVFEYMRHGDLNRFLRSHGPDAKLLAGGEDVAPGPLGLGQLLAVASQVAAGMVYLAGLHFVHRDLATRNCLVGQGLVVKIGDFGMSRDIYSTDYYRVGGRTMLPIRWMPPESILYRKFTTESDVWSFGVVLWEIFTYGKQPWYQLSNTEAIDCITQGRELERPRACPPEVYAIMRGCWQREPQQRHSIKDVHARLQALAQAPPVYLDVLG

[16] = molecular target: T16, BrSK2(h) (Homo sapiens, UniProt Q8IWQ3)
T16 construct: purchased Millipore KinaseProfiler
T16 sequence (Q8IWQ3 1-736): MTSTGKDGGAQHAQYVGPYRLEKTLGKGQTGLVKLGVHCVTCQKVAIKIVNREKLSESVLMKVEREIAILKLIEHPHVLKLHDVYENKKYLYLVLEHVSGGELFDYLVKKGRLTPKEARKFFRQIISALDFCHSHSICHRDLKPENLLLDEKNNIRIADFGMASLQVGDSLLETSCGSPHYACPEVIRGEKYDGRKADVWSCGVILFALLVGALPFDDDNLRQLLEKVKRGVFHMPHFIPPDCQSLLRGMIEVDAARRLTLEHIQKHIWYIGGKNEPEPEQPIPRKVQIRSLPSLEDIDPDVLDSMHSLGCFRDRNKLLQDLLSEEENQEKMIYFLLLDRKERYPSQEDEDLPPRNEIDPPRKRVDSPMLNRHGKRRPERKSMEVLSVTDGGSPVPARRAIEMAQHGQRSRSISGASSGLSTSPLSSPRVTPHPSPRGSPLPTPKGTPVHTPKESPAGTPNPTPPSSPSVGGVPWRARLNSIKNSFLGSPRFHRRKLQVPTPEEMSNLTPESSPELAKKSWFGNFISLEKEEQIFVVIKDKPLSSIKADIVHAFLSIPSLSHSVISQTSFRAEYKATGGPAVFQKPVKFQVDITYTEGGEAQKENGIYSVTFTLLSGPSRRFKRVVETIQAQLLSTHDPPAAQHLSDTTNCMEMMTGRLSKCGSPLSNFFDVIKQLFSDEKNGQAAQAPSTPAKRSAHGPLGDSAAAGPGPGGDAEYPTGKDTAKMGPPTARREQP

[17] = molecular target: T17, Src(T341M)(h) (Homo sapiens, UniProt P12931, T341M)
T17 construct: purchased Millipore KinaseProfiler

[18] = molecular target: T18, SRPK1(h) (Homo sapiens, UniProt Q96SB4)
T18 construct: purchased Millipore KinaseProfiler

T1 sequence (O96017 whole entry): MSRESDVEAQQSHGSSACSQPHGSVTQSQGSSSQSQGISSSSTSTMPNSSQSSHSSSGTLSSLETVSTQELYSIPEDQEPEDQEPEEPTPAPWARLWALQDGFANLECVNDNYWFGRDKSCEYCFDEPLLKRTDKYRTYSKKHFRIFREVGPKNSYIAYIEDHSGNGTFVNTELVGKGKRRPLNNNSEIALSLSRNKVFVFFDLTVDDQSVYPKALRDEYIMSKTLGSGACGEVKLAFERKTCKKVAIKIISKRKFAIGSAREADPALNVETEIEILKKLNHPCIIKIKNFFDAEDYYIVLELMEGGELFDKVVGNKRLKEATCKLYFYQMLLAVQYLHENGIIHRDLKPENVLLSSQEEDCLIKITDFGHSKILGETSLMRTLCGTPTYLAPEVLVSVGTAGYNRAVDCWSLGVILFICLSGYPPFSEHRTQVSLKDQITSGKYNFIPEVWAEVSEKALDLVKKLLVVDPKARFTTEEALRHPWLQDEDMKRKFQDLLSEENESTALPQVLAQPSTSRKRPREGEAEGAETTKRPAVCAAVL

Cn1ncc(Cl)c1-c1cc(C(=O)N[C@H](CN)Cc2cccc(F)c2)sc1Cl [GSK2110183]
inhibition at 0.5 µM [1]: 39%
inhibition at 10 µM [1]: 97%
inhibition at 0.5 µM [2]: -2%
inhibition at 10 µM [2]: 13%
inhibition at 0.5 µM [3]: -1%
inhibition at 10 µM [3]: 12%
inhibition at 0.5 µM [4]: -11%
inhibition at 10 µM [4]: 4%
inhibition at 0.5 µM [5]: 11%
inhibition at 10 µM [5]: 15%
inhibition at 0.5 µM [6]: -9%
inhibition at 10 µM [6]: -5%
inhibition at 0.5 µM [7]: -13%
inhibition at 10 µM [7]: 17%
inhibition at 0.5 µM [8]: 73%
inhibition at 10 µM [8]: 97%
inhibition at 0.5 µM [9]: -11%
inhibition at 10 µM [9]: -8%
inhibition at 0.5 µM [10]: 0%
inhibition at 10 µM [10]: 5%
inhibition at 0.5 µM [11]: 31%
inhibition at 10 µM [11]: 89%
inhibition at 0.5 µM [12]: -4%
inhibition at 10 µM [12]: 28%
inhibition at 0.5 µM [13]: -2%
inhibition at 10 µM [13]: 19%
inhibition at 0.5 µM [14]: 4%
inhibition at 10 µM [14]: 21%
inhibition at 0.5 µM [15]: 9%
inhibition at 10 µM [15]: 69%
inhibition at 0.5 µM [16]: -2%
inhibition at 10 µM [16]: 17%
inhibition at 0.5 µM [17]: 24%
inhibition at 10 µM [17]: 83%
inhibition at 0.5 µM [18]: -1%
inhibition at 10 µM [18]: 18%

Cn1ncc(Cl)c1-c1cc(C(=O)N[C@H](CN)Cc2ccc(F)c(F)c2)oc1Cl [GSK2141795]
inhibition at 0.5 µM ([1]; 0.5 µM, read-out: % Inhibition): 36%
inhibition at 10 µM ([1]; 10 µM, read-out: % Inhibition): 91%
inhibition at 0.5 µM ([2]; 0.5 µM, read-out: % Inhibition): -9%
inhibition at 10 µM ([2]; 10 µM, read-out: % Inhibition): -5%
inhibition at 0.5 µM ([3]; 0.5 µM, read-out: % Inhibition): -6%
inhibition at 10 µM ([3]; 10 µM, read-out: % Inhibition): 10%
inhibition at 0.5 µM ([4]; 0.5 µM, read-out: % Inhibition): -6%
inhibition at 10 µM ([4]; 10 µM, read-out: % Inhibition): -12%
inhibition at 0.5 µM ([5]; 0.5 µM, read-out: % Inhibition): 0%
inhibition at 10 µM ([5]; 10 µM, read-out: % Inhibition): -14%
inhibition at 0.5 µM ([6]; 0.5 µM, read-out: % Inhibition): -6%
inhibition at 10 µM ([6]; 10 µM, read-out: % Inhibition): -2%
inhibition at 0.5 µM ([7]; 0.5 µM, read-out: % Inhibition): 4%
inhibition at 10 µM ([7]; 10 µM, read-out: % Inhibition): 39%
inhibition at 0.5 µM ([8]; 0.5 µM, read-out: % Inhibition): 72%
inhibition at 10 µM ([8]; 10 µM, read-out: % Inhibition): 98%
inhibition at 0.5 µM ([9]; 0.5 µM, read-out: % Inhibition): -16%
inhibition at 10 µM ([9]; 10 µM, read-out: % Inhibition): -11%
inhibition at 0.5 µM ([10]; 0.5 µM, read-out: % Inhibition): -12%
inhibition at 10 µM ([10]; 10 µM, read-out: % Inhibition): -12%
inhibition at 0.5 µM ([11]; 0.5 µM, read-out: % Inhibition): 23%
inhibition at 10 µM ([11]; 10 µM, read-out: % Inhibition): 88%
inhibition at 0.5 µM ([12]; 0.5 µM, read-out: % Inhibition): -8%
inhibition at 10 µM ([12]; 10 µM, read-out: % Inhibition): 37%
inhibition at 0.5 µM ([13]; 0.5 µM, read-out: % Inhibition): -10%
inhibition at 10 µM ([13]; 10 µM, read-out: % Inhibition): 25%
inhibition at 0.5 µM ([14]; 0.5 µM, read-out: % Inhibition): -6%
inhibition at 10 µM ([14]; 10 µM, read-out: % Inhibition): 23%
inhibition at 0.5 µM ([15]; 0.5 µM, read-out: % Inhibition): -13%
inhibition at 10 µM ([15]; 10 µM, read-out: % Inhibition): 63%
inhibition at 0.5 µM ([16]; 0.5 µM, read-out: % Inhibition): 2%
inhibition at 10 µM ([16]; 10 µM, read-out: % Inhibition): 27%
inhibition at 0.5 µM ([17]; 0.5 µM, read-out: % Inhibition): 34%
inhibition at 10 µM ([17]; 10 µM, read-out: % Inhibition): 88%
inhibition at 0.5 µM ([18]; 0.5 µM, read-out: % Inhibition): 5%
inhibition at 10 µM ([18]; 10 µM, read-out: % Inhibition): 17%
